According to patent publication US12286442B2, “Methods and materials for increasing transcription factor eb polypeptide levels” (University of Pittsburgh—Of the Commonwealth System of …, priority 2019, dated 2025):

Experiments:
BEAS-2B cells = assay: Toxicity: compound concentration needed to induce greater than 50 percent of cell loss; assay type: cell-based, human; conditions: 18 hours incubation
Description: (§1) Approximately 2300 primary and immortalized human bronchial epithelial cells (BEAS-2B) stably expressing TFEB-EGFP in 25 μL of HITEs media with 10% FBS were dispensed into 384 well plate (Black with glass bottom) and incubated for 8 hours. Compound serial dilution (DMEM low glucose media with 2% FBS, 25 μL volume) were prepared using a robotic liquid hander. Compound solution were then added to the cell plate and incubated for 18 hours. Cells were then fixed with 4% PFA followed by DAPI staining. TFEB localization was imaged on the GFP channel along with the DAPI signal using a Cytation 5 high content imager. Images were processed through Biotek Gen5 software. Specifically, the DAPI signal was used as the primary mask to quantify the nuclear TFEB-GFP signal. Cytosolic TFEB-GFP signal was quantified through expanding the primary mask. The TFEB nuclear/cytosol ratios were calculated from nuclear TFEB-GFP signal/cytosol TFEB-GFP signal, which determined the compound efficacies.
Toxicity was determined by determining the compound concentration needed to induce greater than 50 percent of cell loss. For toxicity, cell loss of greater than 50 percent at a concentration that equals or is greater than 25 μM was represented as cell loss of greater than 50 percent at a concentration less than 25 μM and greater than 1 μM was represented as and cell loss of greater than 50 percent at a concentration that equals or is less than 1 μM was represented as “+++.” The assay results for compounds 1-202, 214-248, 332, 333, and 352-402 are shown in Table A.

TFEB = assay: High content screen measuring TFEB nuclear accumulation (TFEB nuclear/cytosol ratio) in BEAS-2B cells stably expressing TFEB-EGFP; assay type: cell-based, human; conditions: 18 hours incubation
Description: FIG. 3. High content screen assay (384 well) measuring TFEB nuclear accumulation. Approximately 2500 primary and immortalized human bronchial epithelial cells (BEAS-2B) stably expressing TFEB-EGFP in 25 μL of HITEs media with 10% FBS were dispensed into 384 well plate (Black with glass bottom) and incubated for 8 hours. Compound serial dilution (DMEM low glucose media with 2% FBS, 25 μL volume) were prepared using a robotic liquid hander. Compound solutions were then added to the cell plate and incubated for 18 hours. Cells were then fixed with 4% PFA followed by DAPI staining. TFEB localization was imaged on the GFP channel along with the DAPI signal using a Cytation 5 high content imager. Images were processed through Biotek Gen5 software; specifically, the DAPI signal was used as the primary mask to quantify the nuclear TFEB-GFP signal. The cytosolic TFEB-GFP signal was quantified through expanding the primary mask. The TFEB nuclear/cytosol ratios were calculated from nuclear TFEB-GFP signal/cytosol TFEB-GFP signal, which determined the compound efficacy. […] Compound activities (μM) were determined by the minimal compound concentration needed to increase TFEB nuclear/cytosol ratio by 25%. Activity: “−” equals >25 μM; “+” equals between 25 μM and >10 μM; “++” equals between ≤10 μM and >1 μM; and “+++” equals […]. N=4.
as §1
Compounds efficacies (μM) were determined by the minimal compound concentration needed to increase TFEB nuclear/cytosol ratio by 25%. Activity: “+” equals >25 μM; “++” equals between ≤25 μM and >1 μM; and “+++” equals ≤1 μM.
A high-content imaging screen was conducted using Beas2B cells that stably express GFP-TFEB.

Compound	toxicity (compound concentration needed to induce greater than 50 percent of cell loss) (BEAS-2B cells)	efficacy (minimal compound concentration needed to increase TFEB nuclear/cytosol ratio by 25%) (TFEB)
COc1ccc(-c2nc(Nc3ccc(C)c(F)c3)c3ccccc3n2)cc1 [Compound 163]	+ (cell loss of greater than 50 percent at a concentration that equals or is greater than 25 μM was represented as)	+ (“+” equals >25 μM)
c1ccc2c(Nc3ccc4[nH]ccc4c3)nc(-c3cncs3)nc2c1 [Compound 78]	+ (cell loss of greater than 50 percent at a concentration that equals or is greater than 25 μM was represented as)	++ (“++” equals between ≤25 μM and >1 μM)
FC(F)(F)c1nc2ccc(Nc3nc(-c4ccncc4)nc4ccccc34)cc2o1 [Compound 96]	+ (cell loss of greater than 50 percent at a concentration that equals or is greater than 25 μM was represented as)	+ (“+” equals >25 μM)
O=C(Cc1ccc(-n2c(=O)c3ccccc3n(Cc3ccccc3F)c2=O)cc1)NC1CC1 [Compound 232]	+ (cell loss of greater than 50 percent at a concentration that equals or is greater than 25 μM was represented as)	+ (“+” equals >25 μM)
CCc1nc2ccc(Nc3nc(-c4ccncc4)nc4cc(F)ccc34)cc2s1 [Compound 366]	+ (cell loss of greater than 50 percent at a concentration that equals or is greater than 25 μM was represented as)	+ (“+” equals >25 μM)
c1cnc2nc(-c3ccncc3)nc(Nc3ccc4ncsc4c3)c2c1 [Compound 132]	+ (cell loss of greater than 50 percent at a concentration that equals or is greater than 25 μM was represented as)	+++ (“+++” equals ≤1 μM)
CCc1nc2ccc(Nc3nc(-c4ccncc4)nc4ncccc34)cc2s1 [Compound 129]	+ (cell loss of greater than 50 percent at a concentration that equals or is greater than 25 μM was represented as)	+++ (“+++” equals ≤1 μM)
Fc1cccc2nc(-c3ccncc3)nc(Nc3ccc4[nH]ccc4c3)c12 [Compound 111]	+ (cell loss of greater than 50 percent at a concentration that equals or is greater than 25 μM was represented as)	+ (“+” equals >25 μM)
CC(C)(C)OC(=O)N1CC=C(c2nc(Nc3ccc4[nH]ccc4c3)c3ccccc3n2)CC1 [Compound 88]	+ (cell loss of greater than 50 percent at a concentration that equals or is greater than 25 μM was represented as)	+ (“+” equals >25 μM)
COc1ccc(-n2c(=O)c3ccc(C(=O)NCCc4ccccc4)cc3n(Cc3cccc(F)c3)c2=O)cc1 [Compound 236]	+ (cell loss of greater than 50 percent at a concentration that equals or is greater than 25 μM was represented as)	++ (“++” equals between ≤25 μM and >1 μM)
Fc1c(-c2ccncc2)nc(Nc2ccc3nc(C4CC4)sc3c2)c2cccnc12 [Compound 332]	+ (cell loss of greater than 50 percent at a concentration that equals or is greater than 25 μM was represented as)	+++ (“+++” equals ≤1 μM)
O=C(NCc1ccco1)c1ccc2c(=O)n(-c3ccccc3)c(=O)n(Cc3cccc(F)c3)c2c1 [Compound 234]	+ (cell loss of greater than 50 percent at a concentration that equals or is greater than 25 μM was represented as)	++ (“++” equals between ≤25 μM and >1 μM)
COc1cccc(Nc2nc(-c3ccncc3)nc3ccccc23)c1 [Compound 190]	+ (cell loss of greater than 50 percent at a concentration that equals or is greater than 25 μM was represented as)	++ (“++” equals between ≤25 μM and >1 μM)
Fc1ccc(Nc2nc(-c3ccncc3)nc3ccccc23)cc1 [Compound 181]	+ (cell loss of greater than 50 percent at a concentration that equals or is greater than 25 μM was represented as)	+++ (“+++” equals ≤1 μM)
CCn1c(=O)c2ccccc2n(CC(=O)Nc2ccccc2)c1=O [Compound 226]	+ (cell loss of greater than 50 percent at a concentration that equals or is greater than 25 μM was represented as)	+ (“+” equals >25 μM)
c1cnc2cc(-c3ccncc3)nc(Nc3ccc4[nH]c(C5CC5)cc4c3)c2c1 [Compound 244]	+ (cell loss of greater than 50 percent at a concentration that equals or is greater than 25 μM was represented as)	+++ (“+++” equals ≤1 μM)
Cc1nc2cc(Nc3nc(-c4ccncc4)nc4ccccc34)ccc2s1 [Compound 95]	+ (cell loss of greater than 50 percent at a concentration that equals or is greater than 25 μM was represented as)	+ (“+” equals >25 μM)
Cn1cnc2cc(Nc3nc(-c4ccncc4)nc4ccccc34)ccc21 [Compound 28]	+ (cell loss of greater than 50 percent at a concentration that equals or is greater than 25 μM was represented as)	+ (“+” equals >25 μM)
c1ccc2c(Nc3ccc4[nH]ncc4c3)nc(N3CCNCC3)nc2c1 [Compound 50]	+ (cell loss of greater than 50 percent at a concentration that equals or is greater than 25 μM was represented as)	+ (“+” equals >25 μM)
Fc1cccc2c(Nc3ccc4[nH]ccc4c3)nc(-c3ccncc3)nc12 [Compound 108]	+ (cell loss of greater than 50 percent at a concentration that equals or is greater than 25 μM was represented as)	+++ (“+++” equals ≤1 μM)
NC1CCC(Nc2nc(-c3ccncc3)nc3ccccc23)CC1 (centres unmarked) [Compound 60]	+ (cell loss of greater than 50 percent at a concentration that equals or is greater than 25 μM was represented as)	+ (“+” equals >25 μM)
Fc1ccccc1Nc1nc(-c2ccncc2)nc2ccccc12 [Compound 180]	+ (cell loss of greater than 50 percent at a concentration that equals or is greater than 25 μM was represented as)	+ (“+” equals >25 μM)
CCc1nc2ccc(Nc3nc(-c4ccncc4)nc4c(F)cccc34)cc2s1 [Compound 369]	+ (cell loss of greater than 50 percent at a concentration that equals or is greater than 25 μM was represented as)	+ (“+” equals >25 μM)
CC(C#N)CN(C)c1nc(-c2ccncc2)nc2ccccc12 (centres unmarked) [Compound 173]	+ (cell loss of greater than 50 percent at a concentration that equals or is greater than 25 μM was represented as)	+ (“+” equals >25 μM)
CC(C)c1nc2ccc(Nc3nc(-c4ccncc4)nc4ccncc34)cc2s1 [Compound 120]	+ (cell loss of greater than 50 percent at a concentration that equals or is greater than 25 μM was represented as)	+ (“+” equals >25 μM)
